# Legend:
# [1] = test system: Breast-fed infants with a diagnosis of infantile colic; experiment: Selected probiotic strains versus Simethicone in the treatment of infantile colic (crying time, 28 days); assay type: in vivo, human; conditions: for Crying time (mean minutes per day): N = 30 per group
# Source text: Breast-fed infants with a diagnosis of infantile colic are recruited in the Department of Pediatric and Adolescence Science (Drottning Silvias University Hospital, Goteborg). Patients aged 21-90 days, adequate for gestational age with a birth weight between 2500 and 4000 g, with colic symptoms satisfying the Wessel's criteria, and arisen almost 6±1 days before the enrollment, are considered for inclusion in the study (Wessel M A, Cobb J C, Jackson E B, Harris G S, Detwiler A C. Paroxismal fussing in infancy, sometimes called “colic”. Pediatrics 1954; 14: 421-35). All infants enrolled are exclusively breast-fed in order to reduce variability in the intestinal microflora due to variations in the diet, which may in turn have influenced the response to the probiotic. Infants are excluded if they had clinical evidence of chronic illness or gastrointestinal disorders or if they had received either antibiotics or probiotics in the week preceding recruitment.
# In this study, colicky infants are randomized to receive the probiotic or Simethicone in the following treatments:
# L. reuteri is administered at a dose of 10^8 colony forming units (CFU) in 5 drops of a commercially available MCT-oil (medium chain tri-glyceride oil) suspension 30 min after feeding, once a day for 28 days. MCT oils occur naturally, and the most abundant source is coconut oil. Most MCT oil is refined from coconut oil. MCT oil is a clear light colored liquid with no flavor and low viscosity. This oil suspension is stable for 21 months at 2-8° C. (as documented by the manufacturer, BioGaia AB, Stockholm, Sweden) (alternative source of MCT oil is Akomed R, by Karlshamns AB, Karlshamn, Sweden). During the study, parents are instructed to keep the product in the refrigerator when not in use. Simethicone (S) was given at a dose of 60 mg/day in 3 mL of a commercially available solution (Mylicon Infants Gas Relief Drops, J&J, 7050 Camp Hill Rd., Fort Washington, Pa., 19034-2210, USA) after feeding, twice a day for 28 days. At the enrollment, all mothers are asked to follow a cows' milk-free diet as reported: avoidance of milk, yogurt, fresh and strong cheese, cream, butter, biscuits. Adherence to the diet is monitored with a diet diary maintained for all the treatment period. At day 7, 14, 21 and 28 one of the researches examined the compliance to this diet.
# The day on which the pediatrician saw the infant for the first time is defined as Day-1. On this occasion each infant underwent a medical examination and the parents were interviewed in order to obtain background data concerning type of delivery, birth weight and gestational age, family history of gastrointestinal disease and atopy. In particular, the last one is considered positive if the infants had one or more family members (mother, father and/or older sibling) with atopic eczema, allergic rhinitis or asthma. Moreover, any signs and symptoms of atopic disease during the study period were recorded. Parents were also invited to record data concerning daily average crying time and number of colic episodes on the day after the recruitment (Day 0). The doctor randomly assigned the child to any of the study groups. Administration of study products began on Day 1.
# Parents are given written information about the study and are asked to record daily number of inconsolable crying episodes and their duration, stool consistency and frequency as well as any observed side effects (constipation, vomiting, cutaneous reactions, etc) starting from Day 0 up to Day 28, using a structured diary. In order to ensure that all the parents noted crying time in a uniform way and to ensure that the infants are given the medication correctly, one of the researchers is always available by phone to help parents.
# Each patient is re-examined by the same pediatrician on Days 1, 7, 14, 21 and 28.
# [2] = test system: colicky symptoms in breast-fed infants; conditions: within 7 days of treatment; cited from earlier work
substance,measurement,setting,value
dimethylpolysiloxane [Simethicone],withdrawal because of any side effect related to the trial,"[1]; 28 days treatment, 30 infants per group",No babies are withdrawn because of any side effect
same,Crying time (mean minutes per day),"[1]; Day 0 (before administration), colicky infants",205 minutes per day
same,Crying time (mean minutes per day),"[1]; Day 1, colicky infants",194 minutes per day
same,Crying time (mean minutes per day),"[1]; Day 7, colicky infants",172 minutes per day
same,Crying time (mean minutes per day),"[1]; Day 14, colicky infants",155 minutes per day
same,Crying time (mean minutes per day),"[1]; Day 21, colicky infants",148 minutes per day
same,Crying time (mean minutes per day),"[1]; Day 28, colicky infants",141 minutes per day
same,response rate to the treatment,[2],7%
